In brackets after ≈: the same amount, converted by molar mass. Several values for one entry are separate records, joined by “and”; a condition that tells them apart may be missing. Identical values can stand only once.
Experiments:
[1] = test system: Staphylococcus aureus; assay: Antibacterial activity against methicillin-sensitive Staphylococcus aureus; format: functional, organism-based
[2] = test system: Staphylococcus aureus; assay: Antibacterial activity against healthcare-acquired methicillin-resistant Staphylococcus aureus; format: functional
[3] = test system: Staphylococcus aureus; assay: Antibacterial activity against community-acquired methicillin-resistant Staphylococcus aureus; format: functional
[4] = test system: Enterococcus faecalis; assay: Antibacterial activity against Enterococcus faecalis; format: functional
[5] = test system: Streptococcus pneumoniae; assay: Antibacterial activity against Streptococcus pneumoniae; format: functional
[6] = test system: Acinetobacter baumannii; assay: Antibacterial activity against Acinetobacter baumannii; format: functional
[7] = biological target: DNA gyrase subunit A/DNA gyrase subunit B (Mycobacterium tuberculosis (strain ATCC 25618 / H37Rv), UniProt P9WG45+P9WG47); assay: Inhibition of Mycobacterium tuberculosis DNA gyrase; format: protein-complex assay
[8] = biological target: DNA gyrase (Escherichia coli, UniProt P0AES4+P0AES6); assay: Inhibition of Escherichia coli DNA gyrase; format: protein-complex assay
[9] = test system: Enterococcus faecalis; assay: Antimicrobial activity against Enterococcus faecalis; format: functional
[10] = biological target: DNA gyrase (Staphylococcus aureus, UniProt P0A0K8+P20831); assay: Inhibition of Staphylococcus aureus DNA gyrase; format: protein-complex assay
[11] = test system: Escherichia coli; assay: Antimicrobial activity against Escherichia coli MTCC 443 assessed as zone of inhibition incubated for 24 hrs by agar well diffusion method; format: functional
[12] = test system: Pseudomonas aeruginosa; assay: Antimicrobial activity against Pseudomonas aeruginosa MTCC 424 assessed as zone of inhibition incubated for 24 hrs by agar well diffusion method; format: functional
[13] = test system: Staphylococcus aureus; assay: Antimicrobial activity against Staphylococcus aureus MTCC 96 assessed as zone of inhibition incubated for 24 hrs by agar well diffusion method; format: functional
[14] = test system: Streptococcus pyogenes; assay: Antimicrobial activity against […] MTCC 442 assessed as zone of inhibition incubated for 24 hrs by agar well diffusion method; format: functional
[15] = test system: Staphylococcus aureus; assay: Antimicrobial activity against Staphylococcus aureus MSCL 334 assessed as inhibition of bacterial growth incubated for 24 hrs by standardized broth dilution method; format: functional
[16] = test system: Bacillus subtilis; assay: Antimicrobial activity against Bacillus subtilis assessed as inhibition of bacterial growth incubated for 24 hrs by standardized broth dilution method; format: functional
[17] = test system: Escherichia coli; assay: Antimicrobial activity against Escherichia coli MSCL 332 assessed as inhibition of bacterial growth incubated for 24 hrs by standardized broth dilution method; format: functional
[18] = test system: Mycobacterium tuberculosis; assay: Antitubercular activity against Mycobacterium tuberculosis H37Rv MTCC-200; format: functional
[19] = Inhibition of Salmonella typhimurium DNA gyrase; parameters: species or system Salmonella enterica subsp. enterica serovar Typhimurium
[20] = test system: Salmonella typhimurium; assay: Antibacterial activity against Salmonella typhimurium assessed as inhibition was bacterial growth by broth micro dilution method; format: functional, Salmonella enterica subsp. enterica serovar Typhimurium; settings: Salmonella enterica
[21] = test system: Salmonella enterica; assay: Antibacterial activity against Salmonella enterica assessed as inhibition was bacterial growth by broth micro dilution method; format: functional
[22] = test system: Bacillus subtilis; assay: Antibacterial activity against Bacillus subtilis DSM 10 by microdilution assay; format: functional
[23] = test system: Escherichia coli; assay: Antibacterial activity against Escherichia coli DSM 1116 by microdilution assay; format: functional
[24] = test system: Mycolicibacterium phlei; assay: Antibacterial activity against Mycobacterium phlei DSM 750 by microdilution assay; format: functional
[25] = test system: Staphylococcus aureus; assay: Antimicrobial activity against Staphylococcus aureus ATCC 25923 incubated for 18 to 24 hrs by double micro-dilution method; format: functional; settings: time 18-24 hrs
[26] = test system: Enterococcus faecalis; assay: Antimicrobial activity against Enterococcus faecalis ATCC 29212 incubated for 18 to 24 hrs by double micro-dilution method; format: functional; settings: time 18-24 hrs
[27] = test system: Pseudomonas aeruginosa; assay: Antimicrobial activity against Pseudomonas aeruginosa ATCC 27853 incubated for 18 to 24 hrs by double micro-dilution method; format: functional; settings: time 18-24 hrs
[28] = test system: Klebsiella pneumoniae; assay: Antimicrobial activity against Klebsiella pneumoniae ATCC 13883 incubated for 18 to 24 hrs by double micro-dilution method; format: functional; settings: time 18-24 hrs
[29] = test system: Acinetobacter haemolyticus; assay: Antimicrobial activity against Acinetobacter haemolyticus ATCC 19002 incubated for 18 to 24 hrs by double micro-dilution method; format: functional; settings: time 18-24 hrs
[30] = test system: Mycobacterium tuberculosis; assay: Anti-tubercular activity against Mycobacterium tuberculosis H37Rv strain; format: functional
[31] = test system: Listeria monocytogenes; assay: Antimicrobial activity against Listeria monocytogenes assessed as inhibition of visible growth incubated for 24 hrs by agar-dilution method; format: functional
[32] = test system: Salmonella enterica subsp. enterica serovar Gallinarum; assay: Antimicrobial activity against Salmonella gallinarum assessed as inhibition of visible growth incubated for 24 hrs by agar-dilution method; format: functional

DNA gyrase (Staphylococcus aureus, UniProt P0A0K8+P20831), sequence (P0A0K8 whole entry, the tested form may be a part): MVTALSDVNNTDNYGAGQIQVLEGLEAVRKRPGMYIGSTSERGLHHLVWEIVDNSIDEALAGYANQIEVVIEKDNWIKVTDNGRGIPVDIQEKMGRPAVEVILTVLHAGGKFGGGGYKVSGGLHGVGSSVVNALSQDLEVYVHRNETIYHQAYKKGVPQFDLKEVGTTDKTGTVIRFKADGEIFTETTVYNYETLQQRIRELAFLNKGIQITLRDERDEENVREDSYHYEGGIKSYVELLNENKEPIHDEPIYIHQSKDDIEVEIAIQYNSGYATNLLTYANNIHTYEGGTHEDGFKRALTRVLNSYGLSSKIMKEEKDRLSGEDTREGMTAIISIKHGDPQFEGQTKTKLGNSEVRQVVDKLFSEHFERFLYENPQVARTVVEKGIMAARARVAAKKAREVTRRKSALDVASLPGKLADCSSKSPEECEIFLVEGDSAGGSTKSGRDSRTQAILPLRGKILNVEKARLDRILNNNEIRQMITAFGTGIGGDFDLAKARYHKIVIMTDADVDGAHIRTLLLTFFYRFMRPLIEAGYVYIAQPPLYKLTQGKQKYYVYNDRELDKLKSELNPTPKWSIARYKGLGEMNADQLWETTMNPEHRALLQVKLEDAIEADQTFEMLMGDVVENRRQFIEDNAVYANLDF
DNA gyrase (Staphylococcus aureus, UniProt P0A0K8+P20831), sequence (P20831 whole entry, the tested form may be a part): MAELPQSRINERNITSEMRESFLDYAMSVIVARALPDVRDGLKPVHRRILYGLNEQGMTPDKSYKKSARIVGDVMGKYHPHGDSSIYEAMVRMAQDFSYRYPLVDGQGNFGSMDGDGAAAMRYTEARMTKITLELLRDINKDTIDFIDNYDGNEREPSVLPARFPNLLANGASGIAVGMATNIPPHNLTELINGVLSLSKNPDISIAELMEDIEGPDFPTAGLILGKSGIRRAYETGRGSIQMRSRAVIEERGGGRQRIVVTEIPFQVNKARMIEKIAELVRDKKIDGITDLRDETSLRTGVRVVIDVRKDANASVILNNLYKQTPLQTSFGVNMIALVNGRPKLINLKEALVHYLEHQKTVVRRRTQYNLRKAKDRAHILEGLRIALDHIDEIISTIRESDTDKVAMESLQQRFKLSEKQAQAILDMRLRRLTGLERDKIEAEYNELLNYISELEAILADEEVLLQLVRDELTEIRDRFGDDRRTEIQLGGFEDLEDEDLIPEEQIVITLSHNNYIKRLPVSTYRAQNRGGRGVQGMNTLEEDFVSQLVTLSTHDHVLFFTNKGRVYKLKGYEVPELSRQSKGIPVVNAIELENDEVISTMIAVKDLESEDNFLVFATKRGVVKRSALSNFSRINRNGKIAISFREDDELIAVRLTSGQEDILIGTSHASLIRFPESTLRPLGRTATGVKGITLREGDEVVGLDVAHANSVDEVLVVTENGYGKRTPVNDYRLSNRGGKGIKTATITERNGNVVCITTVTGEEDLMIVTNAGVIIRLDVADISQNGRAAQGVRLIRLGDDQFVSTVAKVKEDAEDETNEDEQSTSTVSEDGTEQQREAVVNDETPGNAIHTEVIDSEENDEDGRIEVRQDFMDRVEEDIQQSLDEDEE
DNA gyrase subunit A/DNA gyrase subunit B, sequence (P9WG45 whole entry): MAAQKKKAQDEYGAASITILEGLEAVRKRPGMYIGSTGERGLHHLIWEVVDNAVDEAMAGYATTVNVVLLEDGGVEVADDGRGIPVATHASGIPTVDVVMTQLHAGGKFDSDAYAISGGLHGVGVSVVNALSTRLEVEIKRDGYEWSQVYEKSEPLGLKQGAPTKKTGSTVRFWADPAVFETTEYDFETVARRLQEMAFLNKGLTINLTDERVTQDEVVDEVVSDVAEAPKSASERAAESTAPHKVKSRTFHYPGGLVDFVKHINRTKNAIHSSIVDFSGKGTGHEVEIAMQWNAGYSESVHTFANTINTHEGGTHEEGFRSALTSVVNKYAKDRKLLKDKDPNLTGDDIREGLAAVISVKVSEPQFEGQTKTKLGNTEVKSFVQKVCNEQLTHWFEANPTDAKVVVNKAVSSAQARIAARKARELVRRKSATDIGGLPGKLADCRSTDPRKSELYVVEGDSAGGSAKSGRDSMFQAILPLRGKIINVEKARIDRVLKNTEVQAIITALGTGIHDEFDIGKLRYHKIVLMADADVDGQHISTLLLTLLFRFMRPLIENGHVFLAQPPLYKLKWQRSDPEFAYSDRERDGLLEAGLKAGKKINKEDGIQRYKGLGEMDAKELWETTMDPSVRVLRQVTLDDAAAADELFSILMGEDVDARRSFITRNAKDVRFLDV
DNA gyrase subunit A/DNA gyrase subunit B, sequence (P9WG47 whole entry): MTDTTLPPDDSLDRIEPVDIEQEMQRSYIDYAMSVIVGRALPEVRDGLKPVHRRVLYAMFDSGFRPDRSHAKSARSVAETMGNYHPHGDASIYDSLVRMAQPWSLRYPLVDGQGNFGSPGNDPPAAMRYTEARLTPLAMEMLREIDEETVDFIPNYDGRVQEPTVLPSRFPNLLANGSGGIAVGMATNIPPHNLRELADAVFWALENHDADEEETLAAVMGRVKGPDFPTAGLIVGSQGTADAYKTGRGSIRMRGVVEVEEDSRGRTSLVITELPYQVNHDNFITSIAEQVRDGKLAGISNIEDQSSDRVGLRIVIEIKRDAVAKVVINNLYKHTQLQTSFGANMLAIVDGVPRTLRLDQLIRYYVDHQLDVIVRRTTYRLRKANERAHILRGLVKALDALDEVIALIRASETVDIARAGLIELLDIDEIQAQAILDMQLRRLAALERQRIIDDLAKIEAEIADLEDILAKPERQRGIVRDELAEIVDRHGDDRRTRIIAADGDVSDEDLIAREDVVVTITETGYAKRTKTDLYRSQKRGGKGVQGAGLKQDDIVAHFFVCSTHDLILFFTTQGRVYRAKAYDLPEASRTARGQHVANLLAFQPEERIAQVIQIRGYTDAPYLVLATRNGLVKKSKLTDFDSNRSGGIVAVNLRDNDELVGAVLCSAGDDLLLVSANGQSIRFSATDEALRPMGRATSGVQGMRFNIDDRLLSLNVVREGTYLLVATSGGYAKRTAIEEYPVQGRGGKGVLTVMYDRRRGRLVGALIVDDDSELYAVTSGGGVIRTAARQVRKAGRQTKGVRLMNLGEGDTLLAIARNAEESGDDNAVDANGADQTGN

Which results are given for `COc1c(N2CCCCC2)c(F)cc2c(=O)c(C(=O)N3CCSC3)cn(C3CC3)c12`?
MIC [1]: 0.39 µg/mL (≈ 0.904 µM); MIC [2]: 0.62 µg/mL (≈ 1.44 µM); MIC [3]: 25 µg/mL (≈ 57.9 µM); MIC [4]: 12.6 µg/mL (≈ 29.2 µM); MIC [5]: 25 µg/mL (≈ 57.9 µM); MIC [6]: 12.6 µg/mL (≈ 29.2 µM); IC50 [7]: 105 µM

With `CC(C)COc1cc(C(=O)NCC(=O)O)ccc1NC(=O)c1cc(Cl)c(Cl)[nH]1` as the compound, how does the IC50 [8] read?
Its IC50 is 47 µM.

And the MIC [9]?
The MIC was 12.5 µM (≈ 5.35 µg/mL).

Which results are given for `COc1ccc2ccc(F)c(CC(=O)N/N=C/c3ccc(F)cc3F)c2n1`?
IC50 [10]: 375 µM; inhibition zone (IZ) [11]: 21 mm; inhibition zone (IZ) [12]: 20 mm; inhibition zone (IZ) [13]: 18 mm; inhibition zone (IZ) [14]: 20 mm

What does the source list for `CCCCCCCOCC[N+]1(C)CCCc2ccccc21.[I-]` (stereo not drawn)?
MIC [15]: 1 µg/mL; MIC [16]: 2 µg/mL; MIC [17]: 128 µg/mL

Which MIC [18] does the source give for `COc1ccc(C(=O)Oc2ccc(/C=C3\C(=O)Nc4ccccc43)cc2)cc1OC` here?
Its MIC is 31 µg/mL (≈ 77.2 µM).

For `COc1c(N2CC3(CC3)[C@@](C)(N)C2)c(F)cc2c(=O)c(C(=O)O)cn([C@@H]3C[C@@H]3F)c12`, which IC50 [19] is on record?
Its IC50 is 0.32 µg/mL and 0.25 µg/mL.

And the MIC [20]?
The MIC was 0.13 µg/mL (≈ 0.31 µM).

And the MIC [21]?
The MIC was 0.06 µg/mL (≈ 0.143 µM).

With `COc1c(NC(=O)c2ccc(NC(=O)C(C)(C)NC(=O)c3ccc(NC(=O)/C(C)=C/c4ccc(O)cc4)cc3)c(OC)c2O)ccc(C(=O)O)c1O` as the compound, how does the MIC [22] read?
The MIC was 0.5 µM (≈ 0.356 µg/mL).

And the MIC [23]?
Its MIC is 0.25 µM (≈ 0.178 µg/mL).

What about the MIC ([23]; Escherichia coli, DSM 1116, read-out: MIC) of the same compound?
Its MIC is 0.5 µM (≈ 0.356 µg/mL).

And the MIC [24]?
The MIC was 2 µM (≈ 1.43 µg/mL).

For `O=C(O)c1cn(C2CC2)c2cc(N3CCN(Cn4nc(CN5CCN(c6ccccc6)CC5)n(Cc5ccccc5)c4=O)CC3)c(F)cc2c1=O`, which IC50 [8] is on record?
Its IC50 is 0.75 µM.

What about the MIC [25] of the same compound?
Its MIC is 8 µg/mL (≈ 11.5 µM).

And the MIC [26]?
Its MIC is 8 µg/mL (≈ 11.5 µM).

What about the MIC [27] of the same compound?
Its MIC is 0.125 µg/mL (≈ 0.18 µM).

And the MIC [28]?
Its MIC is 0.125 µg/mL (≈ 0.18 µM).

And the MIC [29]?
The MIC was 0.125 µg/mL (≈ 0.18 µM).

For `O=C(O)c1cn(C2CC2)c2cc(N3CCNCC3)c(F)cc2c1=O` [CIPROFLOXACIN], which IC50 [19] is on record?
Its IC50 is 0.25 µg/mL (≈ 0.754 µM).

And the MIC [20]?
The MIC was 0.016 µg/mL (≈ 0.0483 µM).

And the MIC [21]?
Its MIC is 0.016 µg/mL (≈ 0.0483 µM).

What about the MIC [30] of the same compound?
Its MIC is 12.5 µM (≈ 4.14 µg/mL).

And the MIC [1]?
The MIC was 0.098 µg/mL (≈ 0.296 µM).

And the MIC [2]?
The MIC was 0.2 µg/mL (≈ 0.604 µM).

And the MIC [3]?
The MIC was 6.3 µg/mL (≈ 19 µM).

What about the MIC [4] of the same compound?
The MIC was 0.79 µg/mL (≈ 2.38 µM).

What about the MIC [5] of the same compound?
The MIC was 0.39 µg/mL (≈ 1.18 µM).

What about the MIC [6] of the same compound?
Its MIC is 0.78 µg/mL (≈ 2.35 µM).

And the MIC [31]?
The MIC was 0.125 µg/mL (≈ 0.377 µM).

And the MIC [32]?
Its MIC is 0.125 µg/mL (≈ 0.377 µM).

Reference: ChEMBL document CHEMBL5233247, “Recent advances in DNA gyrase-targeted antimicrobial agents” (Eur J Med Chem, 2020)
